Test results reported in patent US11440923B2, “Substituted macrocyclic indole derivatives” (Bayer Aktiengesellschaft, priority 2017, dated 2022).
Counter-ions that a name gives are not always drawn. Like-named read-outs stand apart in the source and are kept apart here. One block for each molecule: values may come before it.

Tests used:
[1] = system: HMC-1-8 cells; assay: Antiproliferation assay HMC-1-8 (Assay 7); assay type: cell-based
Procedure, shortened: (§1)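 Luminescent viability signal (CellTiter-Glo) after 72 h of treatment served as read-out. IC50 values were derived with day 0 luminescence as CI and DMSO wells as C0.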

[2] = system: A-431 cells; assay: Antiproliferation assay A-431 (Assay 7); assay type: cell-based; conditions: Homo sapiens, read-out: Antiproli A-431 IC50 median
Description: (§2) Assessment of the Anti-Proliferative Effect of Compounds in Different Cell Lines
(§3) The impact of compounds on the proliferation of different cell lines was assessed using the CellTiter-Glo® Luminescent Cell Viability reagent from Promega (G7573).
(§4) In parallel, cells were plated in a reference (day 0) plate for time zero determination. Cells were incubated in a humidified incubator at 37° C. overnight.
(§5) Rim wells were excluded. The cells were incubated for 72 h hours in a humidified incubator at 37° C. The day 0 plate was measured by adding 30 μL/well of CTG solution (CellTiter-Glo® Luminescent Cell Viability reagent, Promega G7573) to time zero wells in the reference plate followed by a 10 minutes incubation and luminescence reading at 0.1 ms. using the PHERAstar FS microplate reader (BMG Labtech).
(§6) After 72 h incubation, the treated plates were measured in the same way as the day 0 plate mentioned above. The Bella DRC Master Sheet was used to calculate IC50s, with CI=day 0 values and C0=DMSO control values.

[3] = system: PA-1 cells; assay: Antiproliferation assay PA-1 (Assay 7); assay type: cell-based; conditions: Homo sapiens, read-out: Antiproli PA-1 IC50 median
Description: as §2, §3, §4, §5, §6

[4] = system: SUDHL5 cells; assay: Induction of caspase-3/7 activity in SUDHL5 cells (Assay 4); assay type: cell-based
Procedure, shortened: (§7)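 Caspase-3/7 activity measured in DLBCL lines after 3 h compound exposure at 37 °C, following overnight plating; Caspase-Glo 3/7 luminescence read after 1 h at 37 °C. Medium-only background subtracted, values normalized to mean of DMSO-treated cells.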

[5] = system: SUDHL5 cells; assay: Induction of cytotoxicity in SUDHL5 cells (Assay 6); assay type: cell-based; conditions: 5 h, CellTiter-Glo; read-out: Cytotox SUDHL5 IC50 (median)
Procedure, shortened: (§8)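 Following overnight seeding at 37 °C, cells are treated with compound for 5 h, after which CellTiter-Glo reagent is added and luminescence measured following a 15 min room-temperature shake.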

[6] = system: SUDHL10 cells; assay: Induction of caspase-3/7 activity in SUDHL10 cells (Assay 4); assay type: cell-based
Procedure, shortened: as §7

[7] = system: AMO-1 cells; assay: Antiproliferation assay AMO-1 (Assay 7); assay type: cell-based
Procedure, shortened: as §1

[8] = system: SUDHL5 cells; assay: Antiproliferation assay SUDHL5 (Assay 7); assay type: cell-based
Procedure, shortened: as §1

[9] = system: SUDHL10 cells; assay: Induction of cytotoxicity in SUDHL10 cells (Assay 6); assay type: cell-based; conditions: 5 h, CellTiter-Glo; read-out: Cytotox SUDHL10 IC50 (median)
Procedure, shortened: as §8

[10] = system: SK-MEL-2 cells; assay: Antiproliferation assay SK-MEL-2 (Assay 7); assay type: cell-based; conditions: Homo sapiens, read-out: Antiproli SK-MEL-2 IC50 median
Description: as §2, §3, §4, §5, §6

[11] = system: SNU-389 cells; assay: Antiproliferation assay SNU-389 (Assay 7); assay type: cell-based; conditions: 72 h, read-out: Antiproli SNU-389 IC50
Description: as §2, §3, §4, §5, §6

[12] = system: SNU-16 cells; assay: Antiproliferation assay SNU-16 (Assay 7); assay type: cell-based; conditions: Homo sapiens, read-out: Antiproli SNU-16 IC50 median
Description: as §2, §3, §4, §5, §6

[13] = system: DMS-114 cells; assay: Antiproliferation assay DMS-114 (Assay 7); assay type: cell-based; conditions: Homo sapiens, read-out: Antiproli DM-S114 IC50 median
Description: as §2, §3, §4, §5, §6

[14] = target: MCL-1 (Homo sapiens (Human), UniProt Q07820, K194A/K197A/R201A); assay: Protein-protein interaction assay MCL-1/Noxa BH3 peptide (MCL-1 assay, TR-FRET); assay type: binding; conditions: MCL-1 Assay IC50 (median)
Chain of MCL-1 (Q07820 whole entry, looked up, stated change not applied, the tested form may be a part): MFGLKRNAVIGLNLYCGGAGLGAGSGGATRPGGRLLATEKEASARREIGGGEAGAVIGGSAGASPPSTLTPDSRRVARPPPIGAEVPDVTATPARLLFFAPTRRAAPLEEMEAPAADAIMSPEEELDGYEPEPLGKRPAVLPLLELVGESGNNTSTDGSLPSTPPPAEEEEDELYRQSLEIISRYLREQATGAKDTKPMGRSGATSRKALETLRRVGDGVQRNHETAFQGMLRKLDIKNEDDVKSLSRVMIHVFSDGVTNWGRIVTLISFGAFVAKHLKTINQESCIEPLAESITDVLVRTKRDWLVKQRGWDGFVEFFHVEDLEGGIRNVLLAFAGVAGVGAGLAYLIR
Description: The dose-dependent inhibition by the compounds described in this invention of the interaction between MCL-1 and the BH3 domain of Noxa (both human) was determined using a steady state binding competition assay with time-resolved fluorescence energy transfer (TR-FRET) readout. For that purpose MCL-1 (amino acids 173-321, N-terminal fused to Maltose Binding Protein (MBP) SEQ ID 1)) and a synthetic Noxa BH3-derived peptide of sequence Biotin-PEG2-PEG2-PAELEVE-Nva-[…]-amide (SEQ ID 2) served as protein receptor and tracer ligand respectively. The MBP-MCL-1 was purchased from Beryllium (Bedford, Mass., USA). The expression and purification of this protein construct has been described elsewhere (DOI:10.1371/journal.pone.0125010). The Noxa BH3-derived peptide can be obtained from e.g. Biosyntan (Berlin, Germany).
For that, 100-fold concentrated DMSO solutions were prepared by serial dilutions (1:3.4) of a 2 mM stock solution in a clear, 384-well microtiter plate (Greiner Bio-One, Frickenhausen, Germany). From there, 50 nl were transferred in a dark test plate (Greiner Bio-One, Frickenhausen, Germany). The assay was initiated by addition of 2 μL of a 2,5-fold concentrated MBP-MCL-1 solution (usually for a 1 nM end concentration in 5 μL reaction volume) in aqueous assay buffer [50 mM Tris/HCl pH 7, 100 mM sodium chloride (NaCl), 50 mM potassium fluoride (KF), 0.005% Tween-20, 2 mM DTT, 0.1% bovine gamma globulin (BGG)] to the compounds in the assay plate. This was followed by a 10-minute incubation step at 22° C. for pre-equilibration of the putative complex between MBP-MCL-1 and the compounds.
The mixture was incubated in the dark for one hour at 22° C. and then overnight at 4° C. The formation of MCL-1/Noxa complexes was determined by measuring the resonance energy transfer of the anti-MBP-Eu-cryptate antibody to the streptavidin-XL665 present in the reaction.
For that purpose, the fluorescence emission at 620 nm and 665 nm after excitation at 330-350 nm was measured in a TR-FRET measuring instrument, for instance a Rubystar or a Pherastar (both from BMG Lab Technologies, Offenburg, Germany) or a Viewlux (Perkin-Elmer). The ratio of the emission at 665 nm and at 622 nm was used as indicator of the amount of MCL-1/NOXA complexes present.
The resulting data (ratio) were normalized, taking 0% inhibition as the mean value of control measurements (usually 32 data points) where all reagents were included. In this case 50 nl DMSO were used instead of compounds. […] IC50 values were determined by regression analysis based on a 4 parameter equation (minimum, maximum, IC50, Hill; Y=Max+(Min−Max)/(1+(X/IC50)^Hill) using the Screener Software (Genedata).

[15] = 11-membered ring
[16] = system: MV-4-11 cells; assay: Antiproliferation assay MV-4-11 (Assay 7); assay type: cell-based; conditions: 72 h, CellTiter-Glo; read-out: Antiproli MV-4-11 IC50 median
Description: as §2, §3, §4, §5, §6

[17] = system: A2780 cells; assay: Antiproliferation assay A2780 (Assay 7); assay type: cell-based; conditions: 72 h, CellTiter-Glo; read-out: Antiproli A2780 IC50 median
Description: as §2, §3, §4, §5, §6

[18] = 72 h, CellTiter-Glo; read-out: Antiproli HMC-1-8 IC50 median
[19] = 72 h, CellTiter-Glo; read-out: Antiproli AMO-1 IC50 median

IC50 ([2]; A-431, 72 h, CellTiter-Glo): 414 nM
EC50 ([4]; caspase-3/7 induction, 3 h; read-out: Caspase SUDHL5 EC50 (median)): 83 nM
EC50 ([6]; caspase-3/7 induction, 3 h; read-out: Caspase SUDHL10 EC50 (median)): 39 nM
IC50 ([8]; 72 h, CellTiter-Glo; read-out: Antiproli SUDHL5 IC50 (median)): 93 nM
IC50 ([10]; SK-MEL-2, 72 h, CellTiter-Glo): 501 nM
IC50 ([11]; CellTiter-Glo): 307 nM
IC50 ([12]; SNU-16, 72 h, CellTiter-Glo): 1110 nM
IC50 [14]: 0.54 nM
Molecule: CCc1c2c(nn1C)C(CCCN1CCOCC1)OCCCCn1c(C(=O)O)c(CCCOc3cccc4cc(F)ccc34)c3ccc(Cl)c-2c31 (single isomer, unassigned; enantiomer 1) [Example 66, (+)-4-chloro-3-ethyl-7-{3-[(6-fluoronaphthalen-1-yl)oxy]propyl}-2-methyl-15-[3-(morpholin-4-yl)propyl]-2,10,11,12,13,15-hexahydropyrazolo[4′,3′:9,10][1,6]oxazacycloundecino[8,7,6-hi]indole-8-carboxylic Acid (Enantiomer 1)]
IC50 [1, 18]: 1160 nM
IC50 ([3]; PA-1, 72 h, CellTiter-Glo): 829 nM
IC50 [5]: 110 nM
IC50 [7, 19]: 28.5 nM
IC50 [9]: 55 nM
IC50 ([13]; DMS-114 cells, 72 h, CellTiter-Glo): 766 nM

Molecule: (rac)-ethyl 4-chloro-3-ethyl-7-{3-[(6-fluoronaphthalen-1-yl)oxy]propyl}-2-methyl-(15-rac)-[2-(4-methylpiperazin-1-yl)ethyl]-2,10,11,12,13,15-hexahydropyrazolo[4′,3′:9,10][1,6]oxazacycloundecino[8,7,6-hi]indole-8-carboxylate
ring closure, isolated yield ([15]; amine bond, PPh3/DTBAD, THF, 22.7 mM): 49%

Molecule: CCOC(=O)c1c(CCCOc2cccc3cc(F)ccc23)c2ccc(Cl)c3c2n1CCC(F)(F)COC(CCN1CCOCC1)c1nn(C)c(CC)c1-3 (centres unmarked)
ring closure, isolated yield ([15]; from CCOC(=O)c1[nH]c2c(-c3c(C(CCN4CCOCC4)OCC(F)(F)CCO)nn(C)c3CC)c(Cl)ccc2c1CCCOc1cccc2cc(F)ccc12, amine bond, PPh3/DTBAD, THF, 22.5 mM): 83%

IC50 [16]: 22.8 µM
IC50 [17]: > 33 µM
Molecule: Cc1c2c(nn1C)C(CCN1CCOCC1)OCCCCn1c(C(=O)O)c(CCCOc3cccc4ccccc34)c3cccc-2c31 (centres unmarked) [Example 06]

IC50 [16]: 0.183 µM
IC50 [17]: 4.08 µM
Molecule: Cc1c2c(nn1C)C(CCN1CCOCC1)OCCCCn1c(C(=O)O)c(CCCOc3cccc4ccccc34)c3ccc(F)c-2c31 (centres unmarked) [Example 07]
IC50 [1, 18]: 1610 nM
IC50 [7, 19]: 463 nM

Molecule: CCOC(=O)c1[nH]c2c(-c3c(C(O)CCN4CCOCC4)nn(C)c3CC)c(F)ccc2c1CCCOc1cccc2ccccc12 (racemic)
ring closure, isolated yield ([15]; the molecule shown is the open-chain precursor, crosslinker bond, (Z)-1,4-dichlorobut-2-ene/Cs2CO3/NaI, MeCN, 98.0 mM, […]): 50%

Molecule: CCOC(=O)c1[nH]c2c(-c3c(C(O)C4CC4)nn(C)c3CC)c(Cl)ccc2c1CCCOc1cccc2cc(F)ccc12 (racemic)
ring closure, isolated yield ([15]; the molecule shown is the open-chain precursor, crosslinker bond, (Z)-1,4-dichlorobut-2-ene/Cs2CO3/NaI, MeCN, 197.0 mM, 70.0 °C): 59%

Molecule: ethyl (15-rac)-4-chloro-3-ethyl-15-[2-(3-rac-(fluoroazetidin-1-yl)ethyl]-7-{3-[(6-fluoronaphthalen-1-yl)oxy]propyl}-2-methyl-2,10,11,12,13,15-hexahydropyrazolo[4′,3′:9,10][1,6]oxazacycloundecino[8,7,6-hi]indole-8-carboxylate (Mixture of Stereoisomers)
ring closure, isolated yield ([15]; amine bond, PPh3/DTBAD, THF, 69.2 mM): 77%

Molecule: CCc1c2c(nn1C)C(CCN1CCN(C)CC1)OCCCCn1c(C(=O)O)c(CCCOc3cccc4cc(F)ccc34)c3ccc(Cl)c-2c31 (single isomer, unassigned; stereoisomer 1) [Example 69, (+)-4-chloro-3-ethyl-7-{3-[(6-fluoronaphthalen-1-yl)oxy]propyl}-2-methyl-15-[2-(4-methylpiperazin-1-yl)ethyl]-2,10,11,12,13,15-hexahydropyrazolo[4′,3′:9,10][1,6]oxazacycloundecino[8,7,6-hi]indole-8-carboxylic Acid—N-ethylethanamine Salt (Stereoisomer 1)]
IC50 ([1]; read-out: Antiproli HMC-1-8 IC50 median; 72 h, CellTiter-Glo): 4460 nM
IC50 ([2]; A-431, 72 h): 1660 nM
IC50 ([3]; PA-1, 72 h): 795 nM
EC50 ([4]; read-out: Caspase SUDHL5 EC50 (median); caspase-3/7 induction, 3 h): 250 nM
IC50 [5]: 310 nM
EC50 ([6]; read-out: Caspase SUDHL10 EC50 (median); caspase-3/7 induction, 3 h): 150 nM
IC50 ([7]; read-out: Antiproli AMO-1 IC50 median; 72 h, CellTiter-Glo): 212 nM
IC50 ([8]; read-out: Antiproli SUDHL5 IC50 (median); 72 h, CellTiter-Glo): 240 nM
IC50 [9]: 300 nM
IC50 ([10]; SK-MEL-2, 72 h): 1810 nM
IC50 [11]: 2410 nM
IC50 ([12]; SNU-16, 72 h): 1490 nM
IC50 ([13]; DMS-114, 72 h): 762 nM
